In ChEMBL document CHEMBL1201862, “PubChem BioAssay data set” (2004):
The source made the active and inactive calls.

Tests used:
Beta-galactosidase = Beta-galactosidase (Escherichia coli, UniProt Q8VNN2); assay: PubChem AID 485352; format: functional
[1] = target: T1, Type-1 angiotensin II receptor (Homo sapiens, UniProt P30556); assay: AT1 receptor antagonists, dose response, selectivity assay for APJ receptor antagonist project, cell-based, uHTS hits (AID 463214); format: functional;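 also: antagonist potency against angiotensin II stimulated AT1 response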
T1 sequence (P30556 whole entry): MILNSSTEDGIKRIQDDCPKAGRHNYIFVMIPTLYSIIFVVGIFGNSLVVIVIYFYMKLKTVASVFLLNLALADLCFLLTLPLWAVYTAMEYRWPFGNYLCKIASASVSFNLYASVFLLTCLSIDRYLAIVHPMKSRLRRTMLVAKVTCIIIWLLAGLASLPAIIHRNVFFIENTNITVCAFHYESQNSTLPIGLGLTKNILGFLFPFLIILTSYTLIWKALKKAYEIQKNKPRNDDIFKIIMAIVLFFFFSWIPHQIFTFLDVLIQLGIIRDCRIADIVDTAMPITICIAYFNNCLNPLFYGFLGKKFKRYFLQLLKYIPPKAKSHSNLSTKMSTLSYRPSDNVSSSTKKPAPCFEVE

[2] = Luminescence Cell-Based Dose Confirmation HTS to Identify Activators of 5'UTR Stem-Loop Driven Alpha-Synuclein mRNA Translation in H4 Neuroglioblastoma Cells. [Related pubchem assays: 1829 (Project Summary), 1814 (Primary HTS)]; format: functional
[3] = Luminescence Cell-Based Dose Response HTS to Identify Activators of Luciferase Translation or Activity in H4 […] Cells. [Related pubchem assays: 1829 (Project Summary), 1814 (Primary HTS)]; format: functional
H4 = assay: Luminescence Cell-Based Dose Response HTS to Identify Activators of 5'UTR Stem-Loop Driven Prion Protein mRNA Translation in H4 Neuroglioblastoma Cells. [Related pubchem assays: 1829 (Project Summary), 1814 (Primary HTS)]; format: functional; conditions: Homo sapiens
Coagulation factor XII = target: T2, Coagulation factor XII (Homo sapiens, UniProt P00748); format: functional;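 also: activated factor XIIa alpha cleaving a fluorogenic AMC peptide substrate; inhibitor potency from loss of enzyme activity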
T2 sequence (P00748 whole entry): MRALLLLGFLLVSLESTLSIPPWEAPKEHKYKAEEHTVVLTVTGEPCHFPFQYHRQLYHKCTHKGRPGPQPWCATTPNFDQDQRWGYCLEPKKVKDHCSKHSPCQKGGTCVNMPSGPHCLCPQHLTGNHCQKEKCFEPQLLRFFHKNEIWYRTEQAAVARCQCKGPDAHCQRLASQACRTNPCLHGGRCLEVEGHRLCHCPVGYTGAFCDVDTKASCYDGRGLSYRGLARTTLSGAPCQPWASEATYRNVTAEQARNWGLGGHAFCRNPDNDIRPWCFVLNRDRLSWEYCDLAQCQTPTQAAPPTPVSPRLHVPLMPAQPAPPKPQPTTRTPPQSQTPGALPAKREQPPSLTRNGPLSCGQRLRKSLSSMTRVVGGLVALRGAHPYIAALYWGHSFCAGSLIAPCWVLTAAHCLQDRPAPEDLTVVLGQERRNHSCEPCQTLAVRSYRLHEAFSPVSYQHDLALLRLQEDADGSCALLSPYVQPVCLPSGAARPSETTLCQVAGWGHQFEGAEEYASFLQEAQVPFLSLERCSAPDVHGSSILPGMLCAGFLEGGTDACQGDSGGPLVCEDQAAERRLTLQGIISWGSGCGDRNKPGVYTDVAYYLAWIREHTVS

[4] = target: T3, Calpain-2 catalytic subunit (Sus scrofa, UniProt P43367); assay: pig calpain II inhibitor potency, dose response, biochemical, fluorogenic peptide substrate (AID 1420); format: functional
T3 sequence (P43367 whole entry): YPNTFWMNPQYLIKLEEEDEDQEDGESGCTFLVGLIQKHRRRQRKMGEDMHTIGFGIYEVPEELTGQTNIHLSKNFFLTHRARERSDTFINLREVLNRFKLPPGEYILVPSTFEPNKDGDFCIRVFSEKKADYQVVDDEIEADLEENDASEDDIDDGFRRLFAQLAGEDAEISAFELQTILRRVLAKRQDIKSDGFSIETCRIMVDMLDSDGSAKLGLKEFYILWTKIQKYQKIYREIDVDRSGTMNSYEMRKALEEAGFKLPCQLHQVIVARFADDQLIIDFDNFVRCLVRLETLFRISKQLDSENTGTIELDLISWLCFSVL

[5] = inhibitors of firefly luciferase expression or activity, dose response, H4 neuroglioma cells, luminescence (AID 1990); format: functional, cell-based
[6] = Luminescence Cell-Based Dose Response HTS to Identify Inhibitors of 5'UTR Stem-Loop Driven Prion Protein mRNA Translation in H4 Neuroglioblastoma Cells. [Related pubchem assays: 1827 (Project Summary), 1813 (Primary HTS)]; format: functional
[7] = inhibitors of SNCA 5'UTR-driven reporter translation, confirmation, H4 neuroglioma cells, luminescence (AID 1988); format: functional, cell-based
Nonstructural protein 1 = Nonstructural protein 1 (Influenza A virus, UniProt Q194T2); format: functional, Influenza A virus (A/California/07/2009(H1N1))
H9c2 = assay: cells; format: functional, cell-based; conditions: Rattus norvegicus, H9c2, Myocardium;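 also: confirmatory concentration-response retest of ultra-high-throughput screening hits for modulation of myocardial damage; cell death induced by hydrogen peroxide oxidative stress; compound pretreatment for 60 min then peroxide exposure for 2 h; potency is for protecting the cells against peroxide damage rather than for killing them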
[8] = target: T4, Ubiquitin-conjugating enzyme E2 N (Homo sapiens, UniProt P61088); format: functional;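 also: Dose-response confirmation in a TR-FRET assay detecting UBC13-driven polyubiquitin chain formation, inhibition measured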
T4 sequence (P61088 whole entry): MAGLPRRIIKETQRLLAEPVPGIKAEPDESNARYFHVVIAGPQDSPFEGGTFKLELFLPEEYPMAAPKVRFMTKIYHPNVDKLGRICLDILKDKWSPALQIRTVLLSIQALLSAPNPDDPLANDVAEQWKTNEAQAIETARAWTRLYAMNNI

[9] = NIH-3T3 fibroblast cytotoxicity, dose response, cytotoxicity control, cell-based, fluorescence, Alamar Blue, secondary assay (AID 2327); format: functional;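 also: NIH-3T3 mouse fibroblasts cultured with fluconazole at 8 µg/mL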
[10] = C. albicans growth with fluconazole, confirmation, fluorescence, retest (AID 2467); format: functional, cell-based
[11] = THP-1 cell cytotoxicity, dose response, cytotoxicity control for non-replicating M. tuberculosis project (AID 489025); format: functional
[12] = test system: Streptococcus sp. 'group A'; assay: growth inhibition of control SK(-) GAS strain, dose response, counter-screen for streptokinase expression inhibitor project, luminescence, kanamycin, BacTiterGlo, confirmation (AID 1900); format: functional, organism-based
[13] = target: T5, Heat shock factor protein 1 (Mus musculus, UniProt P38532); assay: inhibition of MG132-induced HSE-luciferase signal, confirmation, cell-based, NIH3T3, luminescence, dose retest (AID 2382); format: functional;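 also: NIH3T3 fibroblasts with HSF1-driven luciferase reporter stressed by proteasome inhibitor MG132; luminescence from HSF1-driven luciferase expression after 8 hours of MG132 stress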
T5 sequence (P38532 whole entry): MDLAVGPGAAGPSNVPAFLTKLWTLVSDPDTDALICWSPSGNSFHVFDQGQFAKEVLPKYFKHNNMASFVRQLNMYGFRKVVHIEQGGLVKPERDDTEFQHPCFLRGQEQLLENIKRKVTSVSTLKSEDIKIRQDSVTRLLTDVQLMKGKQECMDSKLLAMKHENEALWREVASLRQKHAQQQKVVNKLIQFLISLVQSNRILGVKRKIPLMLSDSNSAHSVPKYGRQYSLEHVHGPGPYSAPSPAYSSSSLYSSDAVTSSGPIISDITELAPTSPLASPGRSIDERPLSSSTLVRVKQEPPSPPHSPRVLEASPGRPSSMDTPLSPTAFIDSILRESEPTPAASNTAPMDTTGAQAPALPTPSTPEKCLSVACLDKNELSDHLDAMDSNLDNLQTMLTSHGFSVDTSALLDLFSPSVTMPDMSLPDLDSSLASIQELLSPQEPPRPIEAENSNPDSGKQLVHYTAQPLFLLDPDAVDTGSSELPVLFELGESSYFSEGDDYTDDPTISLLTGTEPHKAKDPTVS

Streptococcus = assay: Group A Streptococcus viability loss, dose response, counter-screen for streptokinase expression inhibitor project, luminescence, BacTiterGlo (AID 1915); format: functional, organism-based;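 also: potency for reduction of bacterial viability or growth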
Fatty acid synthase [14] = target: T6, Fatty acid synthase (Homo sapiens, UniProt P49327); assay: FAS thioesterase domain inhibitors, dose response, biochemical, endpoint fluorescence intensity, uHTS hits (AID 624327); format: functional;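 also: fluorescence from hydrolysis of an O-methyl fluorescein acyl ester substrate by the enzyme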
Fatty acid synthase [15] = target: T6, Fatty acid synthase; assay: FAS thioesterase domain inhibitors, dose response, biochemical, kinetic fluorescence intensity (AID 624326); format: functional;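 also: rate of fluorescence rise from hydrolysis of a fluorogenic O-methyl fluorescein ester substrate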
[16] = P. falciparum Dd2 growth inhibitors, dose response, SYBR Green, cherry-picked samples (AID 1159567); format: functional, cell-based

Beta-galactosidase, sequence (Q8VNN2 whole entry): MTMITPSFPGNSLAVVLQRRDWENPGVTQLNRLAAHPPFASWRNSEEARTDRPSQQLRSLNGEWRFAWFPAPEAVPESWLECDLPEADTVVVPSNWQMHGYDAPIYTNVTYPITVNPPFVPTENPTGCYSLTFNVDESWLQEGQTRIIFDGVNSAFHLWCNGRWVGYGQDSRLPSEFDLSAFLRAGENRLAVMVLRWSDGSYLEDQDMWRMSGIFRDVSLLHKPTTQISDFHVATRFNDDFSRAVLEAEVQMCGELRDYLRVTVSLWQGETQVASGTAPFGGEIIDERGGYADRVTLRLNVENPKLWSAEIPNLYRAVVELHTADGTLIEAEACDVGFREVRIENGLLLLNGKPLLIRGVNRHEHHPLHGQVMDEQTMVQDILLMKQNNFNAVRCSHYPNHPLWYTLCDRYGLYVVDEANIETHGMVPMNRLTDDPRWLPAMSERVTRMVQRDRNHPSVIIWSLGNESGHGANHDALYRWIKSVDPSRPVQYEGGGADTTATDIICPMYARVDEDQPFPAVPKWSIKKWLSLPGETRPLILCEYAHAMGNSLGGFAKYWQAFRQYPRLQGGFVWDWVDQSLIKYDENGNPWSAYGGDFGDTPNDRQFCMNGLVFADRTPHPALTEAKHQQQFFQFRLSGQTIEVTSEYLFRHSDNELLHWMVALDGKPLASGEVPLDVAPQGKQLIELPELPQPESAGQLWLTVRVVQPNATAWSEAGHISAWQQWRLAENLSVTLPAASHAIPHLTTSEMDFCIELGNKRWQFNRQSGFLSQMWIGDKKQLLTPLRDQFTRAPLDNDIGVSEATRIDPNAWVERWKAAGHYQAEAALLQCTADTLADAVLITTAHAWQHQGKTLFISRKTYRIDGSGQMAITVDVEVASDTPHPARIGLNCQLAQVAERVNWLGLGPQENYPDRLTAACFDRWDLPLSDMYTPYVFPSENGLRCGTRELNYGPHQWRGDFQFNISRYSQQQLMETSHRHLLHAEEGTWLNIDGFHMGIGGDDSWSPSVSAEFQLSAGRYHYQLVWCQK
Nonstructural protein 1, sequence (Q194T2 whole entry): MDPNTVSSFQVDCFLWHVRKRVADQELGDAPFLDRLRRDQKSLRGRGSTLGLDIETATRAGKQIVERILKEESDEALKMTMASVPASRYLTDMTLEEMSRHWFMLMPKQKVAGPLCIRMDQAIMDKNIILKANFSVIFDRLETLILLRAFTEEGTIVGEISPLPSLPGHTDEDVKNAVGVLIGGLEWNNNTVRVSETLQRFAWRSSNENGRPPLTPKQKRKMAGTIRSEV
T6 sequence (P49327 whole entry, the tested form may be a part): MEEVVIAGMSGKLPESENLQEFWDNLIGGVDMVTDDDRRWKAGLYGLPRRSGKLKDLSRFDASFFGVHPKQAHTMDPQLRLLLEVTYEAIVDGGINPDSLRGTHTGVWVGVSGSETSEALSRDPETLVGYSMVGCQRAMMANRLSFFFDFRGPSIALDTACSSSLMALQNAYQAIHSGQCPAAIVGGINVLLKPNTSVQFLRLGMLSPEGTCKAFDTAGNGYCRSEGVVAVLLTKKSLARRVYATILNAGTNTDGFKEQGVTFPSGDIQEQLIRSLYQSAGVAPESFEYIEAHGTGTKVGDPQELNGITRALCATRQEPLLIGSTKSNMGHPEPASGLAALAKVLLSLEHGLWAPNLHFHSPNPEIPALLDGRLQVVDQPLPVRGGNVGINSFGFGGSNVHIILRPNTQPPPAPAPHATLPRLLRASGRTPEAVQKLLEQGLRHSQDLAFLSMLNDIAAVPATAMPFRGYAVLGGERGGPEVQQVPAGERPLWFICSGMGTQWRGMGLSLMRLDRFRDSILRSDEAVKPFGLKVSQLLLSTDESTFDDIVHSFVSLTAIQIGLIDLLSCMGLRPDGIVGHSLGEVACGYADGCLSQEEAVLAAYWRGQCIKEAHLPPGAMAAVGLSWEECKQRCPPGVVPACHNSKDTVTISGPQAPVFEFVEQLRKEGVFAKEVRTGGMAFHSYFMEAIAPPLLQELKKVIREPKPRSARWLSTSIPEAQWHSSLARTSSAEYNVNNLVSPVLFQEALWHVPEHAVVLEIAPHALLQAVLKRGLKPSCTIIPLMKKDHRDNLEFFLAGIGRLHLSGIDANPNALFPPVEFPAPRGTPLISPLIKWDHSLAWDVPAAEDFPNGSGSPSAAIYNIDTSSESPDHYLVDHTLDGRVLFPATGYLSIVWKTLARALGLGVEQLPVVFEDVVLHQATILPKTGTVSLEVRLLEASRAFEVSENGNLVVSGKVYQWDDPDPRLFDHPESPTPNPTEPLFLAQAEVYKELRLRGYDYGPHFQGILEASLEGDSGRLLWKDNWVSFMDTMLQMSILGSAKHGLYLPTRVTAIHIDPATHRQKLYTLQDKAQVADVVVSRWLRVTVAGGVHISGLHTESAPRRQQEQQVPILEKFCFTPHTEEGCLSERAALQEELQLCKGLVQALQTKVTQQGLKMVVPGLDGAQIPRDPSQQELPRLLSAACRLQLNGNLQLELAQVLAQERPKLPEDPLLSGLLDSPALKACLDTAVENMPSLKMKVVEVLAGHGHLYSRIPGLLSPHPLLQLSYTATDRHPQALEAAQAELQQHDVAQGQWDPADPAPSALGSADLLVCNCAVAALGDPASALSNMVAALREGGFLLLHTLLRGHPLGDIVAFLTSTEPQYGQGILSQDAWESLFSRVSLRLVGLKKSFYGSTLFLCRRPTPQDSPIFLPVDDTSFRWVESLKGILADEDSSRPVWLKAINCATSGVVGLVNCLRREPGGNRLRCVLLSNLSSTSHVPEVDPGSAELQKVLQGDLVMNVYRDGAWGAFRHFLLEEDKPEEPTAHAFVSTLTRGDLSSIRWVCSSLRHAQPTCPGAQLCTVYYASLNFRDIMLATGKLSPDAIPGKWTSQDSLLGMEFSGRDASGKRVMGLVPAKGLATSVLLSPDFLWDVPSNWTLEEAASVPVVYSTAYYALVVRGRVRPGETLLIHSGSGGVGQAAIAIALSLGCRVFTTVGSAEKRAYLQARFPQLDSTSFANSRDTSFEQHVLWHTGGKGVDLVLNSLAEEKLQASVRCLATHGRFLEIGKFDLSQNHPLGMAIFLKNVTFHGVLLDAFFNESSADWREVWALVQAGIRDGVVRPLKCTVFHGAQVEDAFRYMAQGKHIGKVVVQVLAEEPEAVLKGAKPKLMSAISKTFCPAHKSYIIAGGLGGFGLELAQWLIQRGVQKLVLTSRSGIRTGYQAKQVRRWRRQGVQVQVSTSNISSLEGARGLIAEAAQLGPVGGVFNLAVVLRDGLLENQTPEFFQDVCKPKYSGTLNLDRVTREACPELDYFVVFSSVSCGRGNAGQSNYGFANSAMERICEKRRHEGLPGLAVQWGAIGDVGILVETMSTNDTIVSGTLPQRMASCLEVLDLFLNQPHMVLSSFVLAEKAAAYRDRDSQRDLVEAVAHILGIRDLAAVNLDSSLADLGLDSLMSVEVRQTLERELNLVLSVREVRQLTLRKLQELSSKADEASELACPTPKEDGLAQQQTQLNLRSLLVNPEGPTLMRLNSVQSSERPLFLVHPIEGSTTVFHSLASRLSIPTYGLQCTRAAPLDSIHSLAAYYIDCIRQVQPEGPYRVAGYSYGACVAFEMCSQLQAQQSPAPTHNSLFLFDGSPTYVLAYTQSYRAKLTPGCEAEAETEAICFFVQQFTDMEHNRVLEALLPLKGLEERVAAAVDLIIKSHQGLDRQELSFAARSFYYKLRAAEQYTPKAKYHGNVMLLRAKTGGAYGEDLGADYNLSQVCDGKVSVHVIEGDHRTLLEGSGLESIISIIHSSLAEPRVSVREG

CC(C)Oc1cccc(C(=O)NC(=S)Nc2cccnc2)c1
EC50 (Beta-galactosidase): > 40 µM (inactive)
IC50 [1]: > 40 µM (not active)

Cn1ncc(Oc2ccc([N+](=O)[O-])cc2)c(Cl)c1=O
EC50 [2]: > 120 µM (not active)
EC50 [3]: 25.9 µM (active)
EC50 (H4): > 120 µM (not active)
IC50 (Coagulation factor XII): > 50 µM (inactive)

COc1ccc(N2CCN(S(=O)(=O)c3ccc(C(=O)NC4CCCC4)cc3)CC2)cc1
IC50 (Coagulation factor XII): > 50 µM (inactive)

O=C(NC(=S)Nc1ccc(S(=O)(=O)Nc2nccs2)cc1)c1ccccc1F
IC50 (Coagulation factor XII): > 50 µM (inactive)

Cc1cc(C)c(O)c(-c2cc(C(=O)NCc3ccccc3)[nH]n2)c1
IC50 [4]: 3.02 µM (not active)

CC1=C(C(=O)OCC2CCCO2)C(c2ccc(C)o2)C2=C(O)CC(c3ccc(N(C)C)cc3)CC2=N1 (stereo not drawn)
IC50 [4]: > 50 µM (not active)

O=C(CN1C(=O)C2C3C=CC(C3)C2C1=O)Nc1nc(-c2ccccn2)cs1 (stereo not drawn)
EC50 [5]: 15.4 µM (active)
EC50 [6]: > 120 µM (not active)
EC50 [7]: 12.2 µM (active)
IC50 (Nonstructural protein 1): 10.5 µM (active)
IC50 (H9c2): 15.1 µM (active)

O=C(COC(=O)c1ccc(Br)o1)c1ccc(S(=O)(=O)N2CCCCC2)cc1
EC50 (Beta-galactosidase): > 40 µM (inactive)
IC50 [1]: 23.2 µM (not active)

CCCCCCCCCC(=O)N1c2ccccc2NC(=O)C1CC(=O)Nc1ccc(C(=O)O)cc1 (stereo not drawn)
IC50 [4]: 21.1 µM (not active)

O=C(O)CC(Cc1ccc(Cl)cc1)C(=O)Nc1ccc([N+](=O)[O-])cc1 (stereo not drawn)
IC50 [4]: > 50 µM (not active)

O=C(CSc1nnnn1-c1ccccc1)CSc1nnnn1-c1ccccc1
IC50 [4]: 7.04 µM (not active)

CCCc1nc2[nH]nc(N)c2c2c1CCC2
IC50 (Coagulation factor XII): > 50 µM (inactive)

CCC(C)(C)NC(=O)C(c1ccc(C)o1)N(Cc1ccc2c(c1)OCO2)C(=O)c1snc(C(N)=O)c1N (stereo not drawn)
IC50 [8]: > 20 µM (inactive)

O=C(OCc1nnc(-c2ccccc2)o1)c1ccc2c(c1)OCO2
IC50 [4]: 15.2 µM (not active)

c1cnc2c(c1)ccc1cccnc12
EC50 [9]: 6.76 µM (inconclusive)
IC50 (Nonstructural protein 1): 1.03 µM (active)

O=C(NNC(=O)C12CC3CC(CC(C3)C1)C2)c1cnccn1
EC50 [9]: > 160 µM (inactive)
EC50 [10]: > 38 µM (not active)
CC50 [11]: 39.8 µM (active)

CCOC(=O)C1=NNC(C(=O)c2ccc(Cl)cc2)C1c1ccccc1 (stereo not drawn)
EC50 (Beta-galactosidase): > 40 µM (inactive)
IC50 [1]: 39.9 µM (not active)

O=C(CCN1C(=O)C2C3CC(C(Br)C3Br)C2C1=O)OCC(=O)c1cccc([N+](=O)[O-])c1 (stereo not drawn)
EC50 (Beta-galactosidase): > 40 µM (inactive)
IC50 [1]: 28.4 µM (not active)

COc1ccc(C2=NN(C(=O)c3ccc(Cl)c([N+](=O)[O-])c3)C(c3ccccc3)C2)cc1 (stereo not drawn)
IC50 [4]: 3.26 µM (not active)

COc1ccc2sc(-c3ccccc3OC)c(C#Cc3cncn3C)c2c1
IC50 [8]: > 20 µM (inactive)

COc1cccc(/C=N/n2c(N)c(S(=O)(=O)c3cccs3)c3nc4ccccc4nc32)c1OC
IC50 (Coagulation factor XII): > 50 µM (inactive)

Cc1ncc(CO)c(/C=N/NC(=S)Nc2ccc(F)cc2)c1O
IC50 (Nonstructural protein 1): 2.84 µM (active)

COc1ccc(O)c(/C=N/NC(=O)c2cc(O)nc3ccccc23)c1
IC50 (Coagulation factor XII): > 50 µM (inactive)

O=C(Cn1nc2ccccc2n1)N/N=C/c1cc([N+](=O)[O-])ccc1O
EC50 [12]: 0.419 µM (active)
EC50 [13]: 0.691 µM (active)
EC50 (Streptococcus): 0.55 µM (active)
IC50 (Nonstructural protein 1): 5.08 µM (active)
IC50 (Fatty acid synthase [14]): 3.76 µM (active)
IC50 (Fatty acid synthase [15]): 5.14 µM (active)

O=C(c1ccccn1)N1CC(=O)N2[C@H](C1)[C@@H](c1ccc(C#CCc3ccccc3)cc1)[C@@H]2CO
AC50 [16]: 9.01 µM (active)

CCC(=O)N1CC2(C1)CN(Cc1ccccc1Cl)[C@@H](CO)c1[nH]c3cc(OC)ccc3c12
AC50 [16]: 6.32 µM (active)

C[C@@H]1CN([C@@H](C)CO)C(=O)c2cc(NC(=O)Nc3ccc(C(F)(F)F)cc3)ccc2O[C@H]1CN(C)C(=O)Nc1cccc2ccccc12
AC50 [16]: 5.06 µM (active)

C[C@@H]1CN([C@H](C)CO)C(=O)c2cccc(NS(=O)(=O)c3ccccc3)c2O[C@H]1CN(C)Cc1ccc(Oc2ccccc2)cc1
AC50 [16]: 6.14 µM (active)

CC1CCN(CCNC(=O)c2ccc3c(=O)n(Cc4ccc(Cl)cc4)c(=S)[nH]c3c2)CC1
IC50 [8]: > 20 µM (inactive)
